Test results as given in patent US20040063668A1, “Novel acyclic nucleoside phosphonate derivatives, salts thereof and process for the preparation of the same” (priority 2001, published 2004).
Like-named read-outs stand apart in the source and are kept apart here.

What was measured:
[1] = system: Hepatitis B Virus (HBV); assay: Inhibition of hepatitis B virus replication in HepG2.2.15 cell culture, quantitative PCR; format: cell-based; settings: read-out: EC50(μM) in HBV
[2] = Determination of cytotoxicity (MTT) in HepG2.2.15 cells; settings: human
[3] = system: HBV; format: in vivo, HBV transgenic mice (FVB strain); settings: effect = blood does not contain HBV DNA
[4] = system: HepG2.2.15; assay: Determination of cytotoxicity (MTT) in HepG2.2.15 cells; settings: read-out: CC50(μM) in HepG2.2.15; MTT, 10th day from treatment with drug
[5] = Hepatitis B virus, 240 h, HepG2.2.15 culture medium, 10 days after treatment with drug, PCR of HBV DNA
[6] = subcutaneous, 10 mg/kg/day for 9 days

SMILES	EC50 [1, 5] [µM]	CC50 at 10 days [2] [µM]	also measured
Nc1nc(Cl)c2ncn(CC3(OCP(=O)(O)O)CC3)c2n1 [Compound 3, ({1-[(2-amino-6-chloro-9H-purin-9-yl)methyl]cyclopropyl}oxy)methylphosphonic acid]	> 0.5	> 1000	–
Nc1nc(N)c2ncn(CC3(OCP(=O)(O)O)CC3)c2n1 [Compound 19, ({1-[(2,6-diamino-9H-purin-9-yl)methyl]cyclopropyl}oxy)methylphosphonic acid]	> 0.3	> 1000	–
CN(C)c1nc(N)nc2c1ncn2CC1(OCP(=O)(O)O)CC1 [Compound 15, [(1-{[2-amino-6-(dimethylamino)-9H-purin-9-yl]methyl}cyclopropyl)oxy]methyl phosphonic acid]	> 0.8	> 1000	–
Cc1ccc(Sc2nc(N)nc3c2ncn3CC2(OCP(=O)(O)O)CC2)cc1 [Compound 66, {[1-({2-amino-6-[(4-methylphenyl)sulfanyl]-9H-purin-9-yl}methyl)cyclopropyl]oxy}methylphosphonic acid]	> 0.1	> 1000	Result: number of mice showing pharmacological effect/number of total mice [3, 6]: 4/4
CCNc1nc(N)nc2c1ncn2CC1(OCP(=O)(O)O)CC1 [Compound 13, ({1-[(2-amino-6-ethylamino-9H-purin-9-yl)methyl]cyclopropyl}oxy)methylphosphonic Acid]	> 1	> 1000	–
Cc1ccc(Sc2nc(N)nc3c2ncn3CC2(OCP(=O)(OCC(F)(F)F)OCC(F)(F)F)CC2)cc1 [Compound 62, bis(2,2,2-trifluoroethyl){[1-({2-amino-6-[(4-methylphenyl)sulfanyl]-9H-purin-9-yl}methyl)cyclopropyl]oxy}methylphosphonate]	> 0.5	> 1000	–
Nc1ncnc2c1ncn2CC1(OCP(=O)(O)O)CC1 [Compound 1, ({1-[(6-amino-9H-purin-9-yl)methyl]cyclopropyl}oxy)methylphosphonic acid]	> 1	> 1000	–
CCOc1nc(N)nc2c1ncn2CC1(OCP(=O)(O)O)CC1 [Compound 23, ({1-[(2-amino-6-ethoxy-9H-purin-9-yl)methyl]cyclopropyl}oxy)methyl phosphonic acid]	> 0.1	> 1000	Result: number of mice showing pharmacological effect/number of total mice [3, 6]: 4/4
Nc1nc(NC2CC2)c2ncn(CC3(OCP(=O)(O)O)CC3)c2n1 [Compound 11, ({1-[(2-amino-6-cyclopropylamino-9H-purin-9-yl)methyl]cyclopropyl}oxy)meth-ylplhosplhonic acid]	> 20	> 1000	–
Nc1nc(O)c2ncn(CC3(OCP(=O)(O)O)CC3)c2n1 [Compound 5, ({1-[(2-amino-6-hydroxy-9H-purin-9-yl)methyl]cyclopropyl}oxy)methyl phosphonic acid]	> 0.1	> 1000	–
CN1CCN(c2nc(N)nc3c2ncn3CC2(OCP(=O)(O)O)CC2)CC1 [Compound 41, [(1-{[2-amino-6-(4-methyl-1-piperazinyl)-9H-purin-9-yl]methyl}cyclopropyl)oxy]methylphosphonic Acid]	> 1	> 1000	–
Nc1ncc2ncn(CC3(OCP(=O)(O)O)CC3)c2n1 [Compound 9, ({1-[(2-amino-9H-purin-9-yl)methyl]cyclopropyl}oxy)methylphosphonic acid]	> 0.3	> 1000	–
Cc1cn(CC2(OCP(=O)(O)O)CC2)c(=O)[nH]c1=O [Compound 31, [(1-{[5-methyl-2,4-dioxo-3,4-dihydro-1(2H)-pyrimnidinyl]methyl}cyclopropyl)oxy]methylphosphonic acid]	> 50	> 1000	–
CC(C)(C)C(=O)OCOP(=O)(COC1(Cn2cnc3c(N)ncnc32)CC1)OCOC(=O)C(C)(C)C [Compound 2, 3-[({1-[(6-amino-9H-purin-9-yl)methyl]cyclopropyl}oxy)methyl]-8,8-dimethyl-3,7-dioxo-2,46-trioxa-3 ^5-phosphanon-1-yl pivalate]	> 0.1	> 1000	–
CC(C)(C)C(=O)OCOP(=O)(COC1(Cn2cnc3cnc(N)nc32)CC1)OCOC(=O)C(C)(C)C [Compound 10, 3-[({1-[(2-amino-9H-purin-9-yl)methyl]cyclopropyl}oxy)methyl]-8,8-dimethyl-3,7-dioxo-2,4,6-trioxa-3 ^5-phosphanon-1-yl pivalate]	–	> 1000	EC50 ([1]; Hepatitis B virus, HepG2.2.15, 240 h): > 0.08 µM; Result: number of mice showing pharmacological effect/number of total mice ([3]; oral, 0.4 mg/kg/day for 9 days): 5/6; Result: number of mice showing pharmacological effect/number of total mice ([3]; oral, 2 mg/kg/day for 9 days): 4/4
CC1CC1(Cn1cnc2c(O)nc(N)nc21)OCP(=O)(O)O (stereo not drawn) [Compound 97, ({1-[(2-amino-6-hydroxy-9H-purin-9-yl)methyl]-2-methylcyclopropyl}oxy)methylphosphonic acid]	> 0.05	> 1000	Result: number of mice showing pharmacological effect/number of total mice [3, 6]: 4/4
Nc1ncnc2c1ncn2CCOCP(=O)(O)O [PMEA, reference compound]	–	–	EC50 ([1]; HepG2.2.15 culture medium, 10 days after treatment with drug, PCR of HBV DNA): 5 µM; CC50 [4]: > 500 µM
CC1CC1(Cn1cnc2cnc(N)nc21)OCP(=O)(O)O (stereo not drawn) [Compound 98, ({1-[(2-amino-9H-purin-9-yl)methyl]-2-methylcyclopropyl}oxy)methylphosphonic acid]	> 1	> 1000	Result: number of mice showing pharmacological effect/number of total mice [3, 6]: 4/4
Nc1nc(Cl)c2ncn(CC3(OCP(=O)(OCC(F)(F)F)OCC(F)(F)F)CC3)c2n1 [Compound 46, bis(2,2,2-trifluoroethyl)({1-[(2-amino-6-chloro-9H-purin-9-yl)methyl]cyclopropyl}oxy)methylphosphonate]	> 1	> 1000	–
CC(C)(C)OC(=O)OCOP(=O)(COC1(Cn2cnc3cnc(N)nc32)CC1)OCOC(=O)OC(C)(C)C [Compound 69, bis{[(t-butoxycarbonyl)oxy]methyl}({1-[(2-amino-9H-purin-9-yl)methyl]cyclopropyl}oxy)methylphosphonate]	> 1	> 1000	–
CC(C)Nc1nc(N)nc2c1ncn2CC1(OCP(=O)(O)O)CC1 [Compound 17, [(1-{[2-amino-6-(isopropylamino)-9H-purin-9-yl]methyl}cyclopropyl)oxy]methyl phosphonic acid]	> 0.5	> 1000	–
Nc1nc(O)c2ncn(CC3(OCP(=O)(OCC(F)(F)F)OCC(F)(F)F)CC3)c2n1 [Compound 45, bis(2,2,2-trifluoroethyl)({1-[(2-amino-6-hydroxy-9H-purin-9-yl)methyl]cyclopropyl}oxy)methylphosphonate]	> 0.5	> 1000	–
Cc1nc(N)nc2c1ncn2CC1(OCP(=O)(O)O)CC1 [Compound 25, ({1-[(2-amino-6-methyl-9H-purin-9-yl)methyl]cyclopropyl}oxy)methyl phosphonic acid]	> 5	> 1000	–
Nc1nc(N2CCOCC2)c2ncn(CC3(OCP(=O)(O)O)CC3)c2n1 [Compound 37, [(1-{[2-amino-6-(4-morpholinyl)-9H-purin-9-yl]methyl}cyclopropyl)oxy]methyl phosphonic acid]	> 5	> 1000	–
